In patent publication US12077503B2, “Substituted cyclic amides and their use as herbicides” (FMC CORPORATION, priority 2015, dated 2024) one finds pest or weed control data, which are given here for two compounds.

What all share (format): in vivo
One assay concerns Kochia (Kochia scoparia). The assay can be described thus: Test A preemergence. Conditions: Bassia scoparia, pre-emergence, 240 h; for pest or weed control at 125 g/ha: 125 g ai/ha; for pest or weed control at 500 g/ha: 500 g ai/ha. The essentials:
(§1)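 Preemergence directed soil spray on seeded pots, or postemergence application to plants 2–10 cm, one- to two-leaf. Solvent mixture non-phytotoxic, with surfactant. Scored ~10 d later, visually, 0–100 vs untreated.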

Assay [1] deals with barnyardgrass (Echinochloa crus-galli). In words: Test A preemergence. Conditions: Echinochloa crus-galli, pre-emergence, 240 h; for pest or weed control at 125 g/ha: 125 g ai/ha; for pest or weed control at 500 g/ha: 500 g ai/ha. The essentials:
as §1

Assay [2] deals with giant foxtail (Setaria faberii). The assay can be described thus: Test A preemergence. Conditions: Setaria faberi, pre-emergence, 240 h; for pest or weed control at 125 g/ha: 125 g ai/ha; for pest or weed control at 500 g/ha: 500 g ai/ha. The essentials: as §1
For assay [3], the system named is pigweed (Amaranthus retroflexus). The assay can be described thus: Test A preemergence. Conditions: Amaranthus retroflexus, pre-emergence, 240 h; for pest or weed control at 125 g/ha: 125 g ai/ha; for pest or weed control at 500 g/ha: 500 g ai/ha.
Assay [4] concerns ragweed (common ragweed, Ambrosia elatior). The assay can be described thus: Test A preemergence. Conditions: Ambrosia artemisiifolia, pre-emergence, 240 h; for pest or weed control at 125 g/ha: 125 g ai/ha; for pest or weed control at 500 g/ha: 500 g ai/ha. The essentials:
as §1

For assay [5], the system named is ryegrass, Italian (Italian ryegrass, Lolium multiflorum). The assay can be described thus: Test A preemergence. Conditions: Lolium multiflorum, pre-emergence, 240 h; for pest or weed control at 125 g/ha: 125 g ai/ha. The essentials: as §1
In assay [6] the test system is barnyardgrass (Echinochloa crus-galli). The assay can be described thus: Test A postemergence. Conditions: Echinochloa crus-galli, post-emergence, 240 h; for pest or weed control at 125 g/ha: 125 g ai/ha; for pest or weed control at 500 g/ha: 500 g ai/ha. The essentials: as §1
For assay [7], the system named is giant foxtail (Setaria faberii). In words: Test A postemergence. Conditions: Setaria faberi, post-emergence, 240 h; for pest or weed control at 125 g/ha: 125 g ai/ha, read-out: Foxtail, Giant plant response rating (0 to 100 scale); for pest or weed control at 500 g/ha: 500 g ai/ha. The essentials:
as §1

Assay [8] deals with pigweed (Amaranthus retroflexus). In words: Test A postemergence. Conditions: Amaranthus retroflexus, post-emergence, 240 h; for pest or weed control at 125 g/ha: 125 g ai/ha, read-out: Pigweed plant response rating (0 to 100 scale); for pest or weed control at 500 g/ha: 500 g ai/ha. The essentials:
as §1

Assay [9] concerns ryegrass, Italian (Italian ryegrass, Lolium multiflorum). In words: Test A postemergence. Conditions: Lolium multiflorum, post-emergence, 240 h; for pest or weed control at 125 g/ha: 125 g ai/ha, read-out: Ryegrass, Italian plant response rating (0 to 100 scale); for pest or weed control at 500 g/ha: 500 g ai/ha. The essentials: as §1
Assay [10] concerns barnyardgrass (Echinochloa crus-galli). The assay can be described thus: Test B flooded paddy test. Conditions: Echinochloa crus-galli, 250 g ai/ha, Flood; 0 to 100 scale where 0 is no effect and 100 is complete control; read-out: Barnyardgrass plant response rating. The essentials:
(§2)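 Flooding to 3 cm over soil accompanied treatment, which consisted of adding compound to the standing water around 2-leaf plants; depth was then maintained. Visual assessment versus controls followed at 13 to 15 d (scale 0–100, 0 meaning no effect).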

Assay [11] concerns ducksalad (Heteranthera limosa). In words: Test B flooded paddy test. Conditions: Heteranthera limosa, 250 g ai/ha, Flood; 0 to 100 scale where 0 is no effect and 100 is complete control; read-out: Ducksalad plant response rating. The essentials: as §2
In another assay the test system is rice (Oryra sativa). In words: Test B flooded paddy test. Conditions: Oryza sativa, 250 g ai/ha, Flood; 0 to 100 scale where 0 is no effect and 100 is complete control; read-out: Rice plant response rating. The essentials:
as §2

Assay [12] concerns sedge, umbrella (small-flower umbrella sedge, Cyperus difformis). In words: Test B flooded paddy test. Conditions: Cyperus difformis, 250 g ai/ha, Flood. The essentials: as §2
Where [13] appears, read: preemergence, 0 to 100 scale where 0 is no effect and 100 is complete control, read-out: Kochia plant response rating.
The mark [14] stands for this setting: preemergence, 0 to 100 scale where 0 is no effect and 100 is complete control, read-out: Barnyardgrass plant response rating.
Where [15] appears, read: preemergence, 0 to 100 scale where 0 is no effect and 100 is complete control, read-out: Foxtail, Giant plant response rating.
[16] abbreviates: preemergence, 0 to 100 scale where 0 is no effect and 100 is complete control, read-out: Pigweed plant response rating.
[17] abbreviates: preemergence, 0 to 100 scale where 0 is no effect and 100 is complete control, read-out: Ragweed plant response rating.
[18] abbreviates: postemergence, visual injury vs untreated controls after approx. 10 d, 0 = no effect, 100 = complete control.
[19] abbreviates: Postemergence, visual rating about 10 d after treatment.

SMILES strings stand for the structures. Where two headings read alike, the source gives them in different places.

With `CN1C[C@H](c2ccc(F)c(Br)c2)[C@@H](C(=O)Nc2cccc(F)c2F)C1=O` [Compound 1234], the pest or weed control at 125 g/ha in the assay with Kochia (Kochia scoparia) (preemergence, visual injury rating, 0 to 100 scale where 0 is no effect and 100 is complete control, approximately 10 d, read-out: Kochia plant response rating) is 70%; in [1] (preemergence, visual injury rating, 0 to 100 scale where 0 is no effect and 100 is complete control, approximately 10 d, read-out: Barnyardgrass plant response rating), 100%; in [2] (preemergence, visual injury rating, 0 to 100 scale where 0 is no effect and 100 is complete control, approximately 10 d, read-out: Foxtail, Giant plant response rating), 100%; in assay [3] (preemergence, visual injury rating, 0 to 100 scale where 0 is no effect and 100 is complete control, approximately 10 d, read-out: Pigweed plant response rating), 70%; in assay [4] (preemergence, visual injury rating, 0 to 100 scale where 0 is no effect and 100 is complete control, approximately 10 d, read-out: Ragweed plant response rating), 40%; in [5] (preemergence, visual injury rating, 0 to 100 scale where 0 is no effect and 100 is complete control, approximately 10 d, read-out: Ryegrass, Italian plant response rating), 40%. The pest or weed control at 125 g/ha in assay [6] (postemergence, visual injury vs untreated controls after approx. 10 d, 0 = no effect, 100 = complete control, read-out: Barnyardgrass plant response rating (0 to 100 scale)) stood at 90%; in [7] (setting [18]) it was 80%; in [8] (setting [18]) it was 20%; in [9] (setting [18]), 40%. Besides, the pest or weed control at 500 g/ha turned out to be 80% in the assay with Kochia (Kochia scoparia) (setting [13]); 100% in assay [1] (setting [14]); 100% in assay [2] (setting [15]); 90% in [3] (setting [16]); 60% in assay [4] (setting [17]); 80% in assay [5] (500 g ai/ha, preemergence, 0 to 100 scale where 0 is no effect and 100 is complete control, read-out: Ryegrass, Italian plant response rating). Besides, the pest or weed control at 500 g/ha in [6] (postemergence, 0 to 100 scale, 0 is no effect, 100 is complete control, read-out: Barnyardgrass plant response rating) amounted to 90%; in assay [7] (postemergence, 0 to 100 scale, 0 is no effect, 100 is complete control, read-out: Foxtail, Giant plant response rating), 90%; in assay [8] (postemergence, 0 to 100 scale, 0 is no effect, 100 is complete control, read-out: Pigweed plant response rating) it was 50%; in assay [9] (postemergence, 0 to 100 scale, 0 is no effect, 100 is complete control, read-out: Ryegrass, Italian plant response rating), 70%. For the same compound, the pest or weed control at 250 g/ha turned out to be 90% in [10]; 100% in assay [11]; 75% in the assay with rice (Oryra sativa); 0% in [12] (0 to 100 scale where 0 is no effect and 100 is complete control, read-out: Sedge, Umbrella plant response rating).
Take `CN1C[C@H](c2cccc(C(C)(F)F)c2)[C@@H](C(=O)Nc2cccc(F)c2F)C1=O` [Compound 1316]: the pest or weed control at 500 g/ha in the assay on Kochia (Kochia scoparia) (setting [13]) came to 80%; in assay [1] (setting [14]), 90%; in [2] (setting [15]), 90%; in assay [3] (setting [16]), 80%; in assay [4] (setting [17]) it was 70%; in assay [6] (Postemergence, visual injury, 0 to 100 scale (0 no effect, 100 complete control), approx. 10 d, read-out: Plant response rating, Barnyardgrass), 90%. Also, the pest or weed control at 500 g/ha in assay [7] (Postemergence, visual injury, 0 to 100 scale (0 no effect, 100 complete control), approx. 10 d, read-out: Plant response rating, Foxtail, Giant) is 90%; in [8] (Postemergence, visual injury, 0 to 100 scale (0 no effect, 100 complete control), approx. 10 d, read-out: Plant response rating, Pigweed), 60%; in [9] (Postemergence, visual injury, 0 to 100 scale (0 no effect, 100 complete control), approx. 10 d, read-out: Plant response rating, Ryegrass, Italian), 80%. Moreover, the pest or weed control at 125 g/ha with Kochia (Kochia scoparia) (Preemergence, 0 to 100 scale (0 no effect, 100 complete control), read-out: Plant response rating, Kochia) was found to be 80%; in assay [1] (Preemergence, 0 to 100 scale (0 no effect, 100 complete control), read-out: Plant response rating, Barnyardgrass), 90%; in assay [2] (Preemergence, 0 to 100 scale (0 no effect, 100 complete control), read-out: Plant response rating, Foxtail, Giant), 90%; in assay [3] (Preemergence, 0 to 100 scale (0 no effect, 100 complete control), read-out: Plant response rating, Pigweed), 70%; in [4] (Preemergence, 0 to 100 scale (0 no effect, 100 complete control), read-out: Plant response rating, Ragweed) it was 0%; in assay [5] (Preemergence, 0 to 100 scale (0 no effect, 100 complete control), read-out: Plant response rating, Ryegrass, Italian) it was 70%. Further, the pest or weed control at 125 g/ha was determined as 90% in [6] (Postemergence, visual rating about 10 d after treatment, read-out: Barnyardgrass plant response rating (0 to 100 scale, 0 no effect, 100 complete control)); 90% in assay [7] (setting [19]); 50% in assay [8] (setting [19]); 50% in assay [9] (setting [19]). In addition, the pest or weed control at 250 g/ha in assay [10] came to 75%; in [11], 90%; in the assay with rice (Oryra sativa) it was 0%; in assay [12] (360 h, visually evaluated after 13 to 15 d, read-out: Plant response rating, Sedge, Umbrella (0 to 100 scale where 0 is no effect and 100 is complete control)) it was 0%.
